Data taken from patent publication US9776962B2, “Aromatic compounds with GPR40 agonistic activity” (TAKEDA PHARMACEUTICAL COMPANY LIMITED, priority 2013, dated 2017).

target: T1, human GPR40 (Homo sapiens, UniProt O14842); assay: Evaluation of human GPR40 agonist activity with increase in intracellular Ca2+ concentration as an index (FLIPR); assay type: cell-based; details: test compound 1 μM; CHO(dhfr−) cells stably expressing human GPR40; 100% = 10 μM compound of Example 153, 0% = DMSO
T1 construct: expressed in transfected cells
T1 sequence (O14842 whole entry): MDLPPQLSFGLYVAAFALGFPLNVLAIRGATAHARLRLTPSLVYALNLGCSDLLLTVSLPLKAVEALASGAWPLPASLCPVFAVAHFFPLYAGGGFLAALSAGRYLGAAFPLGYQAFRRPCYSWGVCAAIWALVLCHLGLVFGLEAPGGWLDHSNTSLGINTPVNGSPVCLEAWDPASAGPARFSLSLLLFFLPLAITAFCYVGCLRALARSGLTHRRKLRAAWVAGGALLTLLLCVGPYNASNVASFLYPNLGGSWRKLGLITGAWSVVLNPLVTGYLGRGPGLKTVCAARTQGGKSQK
Procedure, shortened: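 CHO(dhfr−) cells stably expressing full-length human GPR40 were loaded with Ca2+ probe for 1 h at room temperature, then given test compound at 1 μM final. Fluorescence was followed on FLIPR, with activity scaled to a reference agonist at 10 μM (100%) and DMSO (0%).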

Row | SMILES | activation at 1 µM [%] | Activity (human GPR40 agonist activity) [%]
1 | COc1cc(N2CCC(COc3cc(C(CC(=O)O)C4CC4)ccn3)CC2)c(C(=O)N(CC(C)(C)C)c2cc(C)ncn2)cn1 (stereo not shown) [Example 257, 3-cyclopropyl-3-(2-((1-(5-((2,2-dimethylpropyl)(6-methylpyrimidin-4-yl)carbamoyl)-2-methoxypyridin-4-yl)piperidin-4-yl)methoxy)pyridin-4-yl)propanoic acid] | 98 | 
2 | COc1ccc(C(=O)N2C[C@@H](C)O[C@@H](C)C2)c(N2CCC(COc3cccc(C(CC(=O)O)C4CC4)c3)CC2)c1 (stereo partly drawn) [Example 5, 3-cyclopropyl-3-(3-((1-(2-((cis-2,6-dimethylmorpholin-4-yl)carbonyl)-5-methoxyphenyl)piperidin-4-yl)methoxy)phenyl)propanoic acid] | 85 | 
3 | Cc1cccc(N(CC(C)(C)C)C(=O)c2ccc(O)cc2N2CCC(COc3cc(C(CC(=O)O)C4CC4)ccn3)CC2)n1 (stereo not shown) [Example 259, 3-cyclopropyl-3-(2-((1-(2-((2,2-dimethylpropyl)(6-methylpyridin-2-yl)carbamoyl)-5-hydroxyphenyl)piperidin-4-yl)methoxy)pyridin-4-yl)propanoic acid] | 77 | 
4 | COc1ccc(C(=O)N(CC2CCCCC2)c2ccccn2)c(N2CCC(COc3cc(C(CC(=O)O)C4CC4)ccn3)CC2)c1 (stereo not shown) [Example 195, 3-(2-((1-(2-((cyclohexylmethyl)(pyridin-2-yl)carbamoyl)-5-methoxyphenyl)piperidin-4-yl)methoxy)pyridin-4-yl)-3-cyclopropylpropanoic acid] | 98 | 
5 | COc1ccc(C(=O)N(CC(F)F)c2ccccn2)c(N2CCC(COc3cc(C(CC(=O)O)C4CC4)ccn3)CC2)c1 (stereo not shown) [Example 137, 3-cyclopropyl-3-(2-((1-(2-((2,2-difluoroethyl)(pyridin-2-yl)carbamoyl)-5-methoxyphenyl)piperidin-4-yl)methoxy)pyridin-4-yl)propanoic acid] | 96 | 
6 | CCc1ccc(C(=O)N(C)c2ncco2)c(N2CCC(COc3cccc(C(CC(=O)O)C4CC4)c3)CC2)c1 (stereo not shown) [Example 57, 3-cyclopropyl-3-(3-((1-(5-ethyl-2-(methyl(1,3-oxazol-2-yl)carbamoyl)phenyl)piperidin-4-yl)methoxy)phenyl)propanoic acid] | 58 | 
7 | COc1ccc(C(=O)N(CC(C)(C)OC)c2ccccn2)c(N2CCC(COc3cc(C(CC(=O)O)C4CC4)ccn3)CC2)c1 (stereo not shown) [Example 131, 3-cyclopropyl-3-(2-((1-(5-methoxy-2-((2-methoxy-2-methylpropyl)(pyridin-2-yl)carbamoyl)phenyl)piperidin-4-yl)methoxy)pyridin-4-yl)propanoic acid] | 85 | 
8 | COc1ccc(C(=O)N(CC(C)(C)OC)c2ccccc2)c(N2CCC(COc3cc(C(CC(=O)O)C4CC4)ccn3)CC2)c1 (stereo not shown) [Example 188, 3-cyclopropyl-3-(2-((1-(5-methoxy-2-((2-methoxy-2-methylpropyl)(phenyl)carbamoyl)phenyl)piperidin-4-yl)methoxy)pyridin-4-yl)propanoic acid] | 95 | 
9 | COc1cc(N2CCC(COc3cc(C(CC(=O)O)C4CC4)ccn3)CC2)c(C(=O)N(CC(C)(C)C)c2cccc(C)n2)cn1 (stereo not shown) [Example 255, 3-cyclopropyl-3-(2-((1-(5-((2,2-dimethylpropyl)(6-methylpyridin-2-yl)carbamoyl)-2-methoxypyridin-4-yl)piperidin-4-yl)methoxy)pyridin-4-yl)propanoic acid] | 103 | 
10 | COc1ccc(C(=O)N(c2ccccn2)C2CCN(CC(F)(F)F)CC2)c(N2CCC(COc3cc(C(CC(=O)O)C4CC4)ccn3)CC2)c1 (stereo not shown) [Example 191, 3-cyclopropyl-3-(2-((1-(5-methoxy-2-(pyridin-2-yl(1-(2,2,2-trifluoroethyl)piperidin-4-yl)carbamoyl)phenyl)piperidin-4-yl)methoxy)pyridin-4-yl)propanoic acid] |  | 86
11 | COc1ccc(C(=O)N(CC2CC2)c2ccccn2)c(N2CCC(COc3cc(C(CC(=O)O)C4CC4)ccn3)CC2)c1 (single isomer, unassigned) [Example 142, 3-cyclopropyl-3-(2-((1-(2-((cyclopropylmethyl)(pyridin-2-yl)carbamoyl)-5-methoxyphenyl)piperidin-4-yl)methoxy)pyridin-4-yl)propanoic acid] |  | 97
12 | COc1ccc(C(=O)N(CC(C)(C)C)c2cccc(C)n2)c(N2CCC(COc3cccc(C4(CC(=O)O)COC4)c3)CC2)c1 [Example 278, (3-(3-((1-(2-((2,2-dimethylpropyl) (6-methylpyridin-2-yl)carbamoyl)-5-methoxyphenyl)piperidin-4-yl)methoxy)phenyl)oxetan-3-yl)acetic acid] | 78 | 
13 | COc1ccc(C(=O)N(CC(C)(C)C)c2cncc(C(F)(F)F)c2)c(N2CCC(COc3cc(C(CC(=O)O)C4CC4)ccn3)CC2)c1 (stereo not shown) [Example 235, 3-cyclopropyl-3-(2-((1-(2-((2,2-dimethylpropyl) (5-(trifluoromethyl)pyridin-3-yl)carbamoyl)-5-methoxyphenyl)piperidin-4-yl)methoxy)pyridin-4-yl)propanoic acid] | 91 | 
14 | Cc1cccc(N(CC(C)(C)C)C(=O)c2ccc(Br)cc2N2CCC(COc3cc(C(CC(=O)O)C4CC4)ccn3)CC2)n1 (stereo not shown) [Example 263, 3-(2-((1-(5-bromo-2-((2,2-dimethylpropyl)(6-methylpyridin-2-yl)carbamoyl)phenyl)piperidin-4-yl)methoxy)pyridin-4-yl)-3-cyclopropylpropanoic acid] | 94 | 
15 | COc1ccc(C(=O)N(CC(C)(C)C)c2ccccn2)c(N2CC[C@H](COc3cccc(C(CC(=O)O)C4CC4)c3)[C@@H](C)C2)c1 (stereo partly drawn) [Example 279, (3S)-cyclopropyl-3-(3-(((3R,4S)-1-(2-((2,2-dimethylpropyl) (pyridin-2-yl)carbamoyl)-5-methoxyphenyl)-3-methylpiperidin-4-yl)methoxy)phenyl)-propanoic acid] | 92 | 
16 | COCC(C)(C)CN(C(=O)c1ccc(OC)cc1N1CCC(COc2cc(C(CC(=O)O)C3CC3)ccn2)CC1)c1ccccn1 (stereo not shown) [Example 155, 3-cyclopropyl-3-(2-((1-(5-methoxy-2-((3-methoxy-2,2-dimethylpropyl)(pyridin-2-yl)carbamoyl)phenyl)piperidin-4-yl)methoxy)pyridin-4-yl)propanoic acid] | 96 | 
17 | COc1c(F)cc(C(=O)N(CC(C)(C)C)c2cccc(C)n2)c(N2CCC(COc3cc(C(CC(=O)O)C4CC4)ccn3)CC2)c1F (stereo not shown) [Example 253, 3-cyclopropyl-3-(2-((1-(6-((2,2-dimethylpropyl)(6-methylpyridin-2-yl)carbamoyl)-2,4-difluoro-3-methoxyphenyl)piperidin-4-yl)methoxy)pyridin-4-yl)propanoic acid] | 74 | 
18 | CCc1ccc(C(=O)N(CC(C)(C)C)c2cccc(C)n2)c(N2CCC(COc3cc(C(CC(=O)O)C4CC4)ccn3)CC2)c1 (stereo not shown) [Example 109, 3-cyclopropyl-3-(2-((1-(2-((2,2-dimethylpropyl)(6-methylpyridin-2-yl)carbamoyl)-5-ethylphenyl)piperidin-4-yl)methoxy)pyridin-4-yl)propanoic acid] | 90 | 
19 | COc1ccc(C(=O)N(CC(C)C)c2ncccc2C)c(N2CCC(COc3cc(C(CC(=O)O)C4CC4)ccn3)CC2)c1 (stereo not shown) [Example 150, 3-cyclopropyl-3-(2-((1-(5-methoxy-2-((2-methylpropyl)(3-methylpyridin-2-yl)carbamoyl)phenyl)piperidin-4-yl)methoxy)pyridin-4-yl)propanoic acid] | 84 | 
20 | COc1cc(N2CCC(COc3cc(C(CC(=O)O)C4CC4)ccn3)CC2)c(C(=O)N(CC(F)(F)F)c2ccccn2)cn1 (stereo not shown) [Example 256, 3-cyclopropyl-3-(2-((1-(2-methoxy-5-(pyridin-2-yl(2,2,2-trifluoroethyl)carbamoyl)pyridin-4-yl)piperidin-4-yl)methoxy)pyridin-4-yl)propanoic acid] | 96 | 
21 | COc1ccc(C(=O)N(CC(F)(F)F)c2cc(C)ccn2)c(N2CCC(COc3cc(C(CC(=O)O)C4CC4)ccn3)CC2)c1 (stereo not shown) [Example 148, 3-cyclopropyl-3-(2-((1-(5-methoxy-2-((4-methylpyridin-2-yl)(2,2,2-trifluoroethyl)carbamoyl)phenyl)piperidin-4-yl)methoxy)pyridin-4-yl)propanoic acid] | 104 | 
22 | Cc1ccc(C(=O)N(CC(C)(C)C)c2cccc(C)n2)c(N2CCC(COc3cc(C(CC(=O)O)C4CC4)ccn3)CC2)c1 (stereo not shown) [Example 258, 3-cyclopropyl-3-(2-((1-(2-((2,2-dimethylpropyl)(6-methylpyridin-2-yl)carbamoyl)-5-methylphenyl)piperidin-4-yl)methoxy)pyridin-4-yl)propanoic acid] | 94 | 
23 | COc1ccc(C(=O)N(CC(C)(F)F)c2ccccn2)c(N2CCC(COc3cc(C(CC(=O)O)C4CC4)ccn3)CC2)c1 (stereo not shown) [Example 126, 3-cyclopropyl-3-(2-((1-(2-((2,2-difluoropropyl)(pyridin-2-yl)carbamoyl)-5-methoxyphenyl)piperidin-4-yl)methoxy)pyridin-4-yl)propanoic acid] | 99 | 
24 | COc1ccc(C(=O)N(CC(C)C)c2cccnc2OC)c(N2CCC(COc3cc(C(CC(=O)O)C4CC4)ccn3)CC2)c1 (stereo not shown) [Example 136, 3-cyclopropyl-3-(2-((1-(5-methoxy-2-((2-methoxypyridin-3-yl)(2-methylpropyl)carbamoyl)phenyl)piperidin-4-yl)methoxy)pyridin-4-yl)propanoic acid] | 95 | 
25 | COc1ccc(C(=O)N(CC(C)C)c2ccccn2)c(N2CCC(COc3cccc(C(CC(=O)O)C4CC4)c3)CC2)c1 (stereo not shown) [Example 62, 3-cyclopropyl-3-(3-((1-(5-methoxy-2-((2-methylpropyl)(pyridin-2-yl)carbamoyl)phenyl)piperidin-4-yl)methoxy)phenyl)propanoic acid] | 101 | 
